The values that follow come from patent US11384358B2, “Method of regulating gene expression in a cell” (President and Fellows of Harvard College, priority 2017, dated 2022).

Holding throughout (format): cell-based
The test system of one data set is L. crispatus. The experiment in a line: susceptibility of Lactobacillus strains to tetracycline (growth inhibition).
The test system of the next data set is L. gasseri. The data set is described as above.
Data set [1] deals with L. rhamnosus GG. The data set is described as above. On the procedure:
(§1) An expression system that is inducible by tetracycline in Lactobacilli is described as follows. […] A BLAST analysis of the TetR protein sequence as well as the TetA tetracycline efflux pump that drives resistance was performed, across all available Lactobacillus proteomes and potential homologs in L. lactis, and L. plantarum were identified, because they carry a transferrable plasmid harboring tetM and tetS genes.

The next data set deals with L. jensenii. The data set is described as above. Here is the method: as §1
Data set [2] concerns aTc-inducible expression cassette encoding J3-VHH secretion. The experiment in a line: aTc-induced secretion of HisTagged J3-VHH nanobody, protein gel of purified culture supernatant. Particulars: L. gasseri with inducible cassette (SEQ ID NO: 2); 500 ng/mL aTc added at optical density 0.4; FIG. 17. The source says:
According to one aspect, an inducible expression system is used prevent expression during bacterial culture and clone isolation. According to one aspect, expression is controlled and kept off during bacterial culture and clone isolation to avoid or lower or reduce or inhibit secretion-induced toxicity. According to one aspect, the level of a HisTagged, anti-HIV (gp120) camelid nanobody (J3-VHH) purified from culture supernatant, when secretion of protein was driven by an inducible system (SEQ ID NO: 2) was compared to a system using an uncontrolled, constitutive slpA. Cells (in this case, L. gasseri) without an expression cassette (negative control with no protein expected), an aTc-inducible expression cassette encoding J3-VHH secretion, and an equivalent, but constitutive expression cassette, were grown in culture to an optical density of 0.4 (the start of the exponential growth phase, during which time cellular protein production capacity is maximal), and split into two equal volumes—500 ng/mL of aTc was added to one, while the other received no aTc (as an internal negative control to verify functional induction).

For data set [3], the system named is TetR regulon paired with slpA-tetO variant 2. The experiment in a line: aTc induction of fluorescent reporter, TetR regulon (L. plantarum promoter) paired with slpA-tetO variant 2. Particulars: L. rhamnosus GG; 0.3125-10 ng/mL aTc; early exponential, mid-exponential and stationary phase; FIG. 1. Here is the method:
To evaluate the functionality of the aTc induction system described herein in lactic acid bacteria, the TetR regulon described herein is driven by a L. plantarum promoter paired with slpA-tetO variant 2 (current SEQ IDs 1 and 2), into L. rhamnosus GG via electroporation with a high copy plasmid. Sequence verified colonies, as well as colonies harboring a negative control plasmid with no fluorescence reporter, were then picked in triplicate, and used to inoculate liquid cultures that were grown overnight. These overnight cultures were then sub-cultured 1/100 into fresh media, in duplicate—one culture containing 10 ng/mL aTc, the other containing no inducing agent. The culture with inducing agent, was then serially diluted by 50%, 5 times (yielding cultures with 5, 2.5, 1.25, 0.625, and 0.3125 ng/mL of aTc, in addition to the original 10 ng/mL culture). These cultures were then grown to an optical density of 0.2 (to capture lag phase behavior), 0.6 (log phase), and 1.0 (stationary phase), as measured by an optical cell density meter. At each optical density, the fluorescence of all cultures and replicates were measured in absolute units in a fluorimeter. Relative fluorescence units were then computed as a fold change value over the measured fluorescence of the negative control cell cultures that were known to not express fluorescence protein.

Data set [4] can be described thus: relative expression strength of promoters by fluorescence (FIG. 12).
For data set [5], the system named is L. rhamnosus GG. The experiment in a line: leakage and induction of aTc-inducible slpA promoter variant (FIG. 16). The source says: An exemplary aTc-inducible slpA promoter variant is provided in SEQ ID NO:15 which includes the alterations above resulting in a combined, maximally repressive variant. In one embodiment, a promoter sequence has at least 85% homology, at least 90% homology, at least 95% homology, at least 97% homology, at least 98% homology or at least 99% homology to SEQ ID NO:15. All of the described alterations work in concert to achieve an inducible system that has essentially undetectable levels of leakage in all phases of growth.

The subject of data set [6] is TetR regulon paired with slpA-tetO variant 2. The experiment in a line: aTc induction of fluorescent reporter in L. gasseri. Particulars: similar experimental conditions, FIG. 15.
Data set [7] concerns L. rhamnosus GG. The experiment in a line: promoter variants driving fluorescent reporter in plasmid with no TetR, L. rhamnosus GG. On the procedure:
FIG. 11 depicts minimum free energy mRNA structural folding predictions. Each of these variants was then tested in a plasmid with no TetR (meaning the inserted promoters are not repressed, and should be constitutively active), driving a fluorescent reporter. […] Subsequently, this test was replicated in L. rhamnosus GG. […] Therefore, only variant 2 was selected for testing in the presence of TetR. […] See McCracken et al. J Bacteriol 181(20):6569-6572 (1999).

Some results are limits rather than exact numbers.

Regarding `CN(C)[C@@H]1C(O)=C(C(N)=O)C(=O)[C@@]2(O)C(O)=C3C(=O)c4c(O)cccc4[C@@](C)(O)[C@H]3C[C@@H]12` [tetracycline], the “tetracycline concentration at which growth is inhibited” value in the data set with L. crispatus, with L. gasseri, with L. rhamnosus GG [1] and in the data set on L. jensenii was no more than 2 mg/mL in each case.

In the case of `Cc1c2c(c(O)c3c(O)cccc13)C(=O)[C@]1(O)C(O)=C(C(N)=O)C(=O)[C@@H](N(C)C)[C@@H]1C2` [aTc, anhydrous tetracycline], in data set [2], the “secretion of J3-VHH protein into the supernatant” value is “secreted any protein into the supernatant”. Further, the “repression and expression of a fluorescent protein in the absence and presence of aTc” value in [3] was “reliable repression and expression of a fluorescent protein”.

B1: promoter for the ribosomal RNA 3-a from L. plantarum: L. plantarum ribosomal RNA promoter 3-a, used to drive TetR (SEQ ID NO: 1) (nucleic acid)
DNA: TTATAAAAAGATGTTGACAGCTTGTTCTGATGATGATAAACTTTAATAGTTGCGAGAGAAAGAGGAGAAATACTAGATGATGTCTAGATTAGATAAAAGTAAAGTGATTAACAGCGCATTAGAGCTGCTTAATGAGGTCGGAATCGAAGGTTTAACAACCCGTAAACTCGCCCAGAAGCTAGGTGTAGAGCAGCCTACATTGTATTGGCATGTAAAAAATAAGCGGGCTTTGCTCGACGCCTTAGCCATTGAGATGTTAGATAGGCACCATACTCACTTTTGCCCTTTAGAAGGGGAAAGCTGGCAAGATTTTTTACGTAATAACGCTAAAAGTTTTAGATGTGCTTTACTAAGTCATCGCGATGGAGCAAAAGTACATTTAGGTACACGGCCTACAGAAAAACAGTATGAAACTCTCGAAAATCAATTAGCCTTTTTATGCCAACAAGGTTTTTCACTAGAGAATGCATTATATGCACTCAGCGCTGTGGGGCATTTTACTTTAGGTTGCGTATTGGAAGATCAAGAGCATCAAGTCGCTAAAGAAGAAAGGGAAACACCTACTACTGATAGTATGCCGCCATTATTACGACAAGCTATCGAATTATTTGATCACCAAGGTGCAGAGCCAGCCTTCTTATTCGGCCTTGAATTGATCATATGCGGATTAGAAAAACAACTTAAATGTGAAAGTGGGTCTTAA
Regarding B1, in [4], the “expression strength relative to slpA” value is recorded as 5 fold weaker than that of slpA.

B2: SEQ ID NO:15: aTc-inducible slpA promoter variant combining all alterations, maximally repressive (nucleic acid)
DNA: TGCTTGTGGGGGTAAGCGGTAGGTGAAATATTACAAATAGTATTTTTCGGTCATTTTAACTTGCTATTTCTTGAAGAGGTTAGTACAATATGAATCGTGGTCCCTATCAGTGATAGAGATTGACATCCCTATCAGTGATAGAGATATTCTTCAGCAAGACTACTACCTCATGAGAGTTATAGACTCATGGATCTTGCTTTGAAGGGTTTTGTACATTATAGGCTCCTATCACATGCTGAACCTATGGCCTATTACATTTTTTTATATTTCAAGGAGGAAAAGACCAC
As for B2, the “reduction in maximum inducible expression” value with L. rhamnosus GG [5] (FIG. 16) was roughly 10 ×. Moreover, the “basal expression in the absence of aTc” value in the data set with L. rhamnosus GG [5] (stationary phase for 0, 2.5, 7.5 and 17.5 hours) is given as “no basal expression was detected”.

B3: TetR-ClpC-slpA: hybrid regulon: L. fermentum BR11 ClpC promoter fused to slpA 5' untranslated region driving TetR (nucleic acid)
DNA: CTTAAAATATAGTCATAGAATTAGGGCGTCGGTTTTAAAAGTGTGGTAAAATAATGGTCAAGATTAGTGGTAAGTAATAGGACGTGCTTCAGGCGTGTTGCCTGTACGCATGCTGATTCTTCAGCAAGACTACTACCTCATGAGAGTTATAGACTCATGGTATAGGCTCCTATCACATGCTGAACCTATGGCCTATTACATTTTTTTATATTTCAAGGAGGAAAAGACCACATGATGTCACGCTTGGATAAATCAAAAGTTATTAATTCAGCATTGGAATTGTTGAATGAAGTTGGCATTGAAGGCTTGACCACCCGCAAATTGGCACAAAAATTGGGCGTTGAACAACCAACCTTGTATTGGCATGTTAAAAATAAACGCGCATTGTTGGATGCATTGGCAATTGAAATGTTGGATCGCCATCATACCCATTTTTGCCCATTGGAAGGCGAATCATGGCAAGATTTTTTGCGCAATAATGCAAAATCATTTCGCTGCGCATTGTTGTCACATCGCGATGGCGCAAAAGTTCATTTGGGCACCCGCCCAACCGAAAAACAATATGAAACCTTGGAAAATCAATTGGCATTTTTGTGCCAACAAGGCTTTTCATTGGAAAATGCATTGTATGCATTGTCAGCAGTTGGCCATTTTACCTTGGGCTGCGTTTTGGAAGATCAAGAACATCAAGTTGCAAAAGAAGAACGCGAAACCCCAACCACCGATTCAATGCCACCATTGTTGCGCCAAGCAATTGAATTGTTTGATCATCAAGGCGCAGAACCAGCATTTTTGTTTGGCTTGGAATTGATTATTTGCGGCTTGGAAAAACAATTGAAATGCGAATCAGGCTCATAA
Turning to B3, the “function of hybrid promoter driving TetR” value in data set [6] is recorded as “functional”.

B4: Variant 2: slpA promoter with two tetO boxes after the transcriptional start site (nucleic acid)
DNA: TGCTTGTGGGGGTAAGCGGTAGGTGAAATATTACAAATAGTATTTTTCGGTCATTTTAACTTGCTATTTCTTGAAGAGGTTAGTACAATATGAATCGTGGCCCTATCAGTGATAGAGATCAGGCGCCCTATCAGTGATAGAGATGATTCTTCAGCAAGACTACTACCTCATGAGAGTTATAGACTCATGGATCTTGCTTTGAAGGGTTTTGTACATTATAGGCTCCTATCACATGCTGAACCTATGGCCTATTACATTTTTTTATATTTCAAGGAGGAAAAGACCAC
For B4, the “expression versus wild-type promoter” value with L. rhamnosus GG [7] was 3 fold-less than the wild-type promoter.
